We go through nine cell lines from the supplement of paper PMC10307832.

Holding throughout (test): relative viability (nuclei count vs DMSO), 5 days (fraction); higher = more cells survive
Compound in experiment [1]: Cc1ccc(NC(=O)c2ccc(CN3CCN(C)CC3)cc2)cc1Nc1nccc(-c2cccnc2)n1 [Imatinib] + N=C(N)NC(=N)NCCc1ccccc1 [Phenformin] (partner 250 µM)
The method, boiled down:
(§1)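 Medians of duplicate plates are given as relative viability. That measure is the nuclei count in treated wells divided by the count in vehicle wells. Counts were taken on 4× images of lung cancer cell lines in 1536-well plates, 5 days after pin-tool dosing the day after seeding with one drug alone or a fixed anchor-drug dose plus five library-drug doses (not always all listed) in √10 steps.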

Compound in experiment [2]: Cc1ccc(NC(=O)c2ccc(CN3CCN(C)CC3)cc2)cc1Nc1nccc(-c2cccnc2)n1 [Imatinib] + CC1(C)CCC(c2ccc(Cl)cc2)=C(CN2CCN(c3ccc(C(=O)NS(=O)(=O)c4ccc(N[C@H](CCN5CCOCC5)CSc5ccccc5)c(S(=O)(=O)C(F)(F)F)c4)cc3)CC2)C1 [Navitoclax] (partner 0.5 µM)
The essentials: as §1

Compound in experiment [3]: Cc1ccc(NC(=O)c2ccc(CN3CCN(C)CC3)cc2)cc1Nc1nccc(-c2cccnc2)n1 [Imatinib] + NC(=O)Nc1cc(-c2cccc(F)c2)sc1C(=O)N[C@H]1CCCNC1 [AZD7762] (partner 0.2 µM)
The method, boiled down: as §1

Compound in experiment [4]: Cc1ccc(NC(=O)c2ccc(CN3CCN(C)CC3)cc2)cc1Nc1nccc(-c2cccnc2)n1 [Imatinib] + CC(=O)c1c(C)c2cnc(Nc3ccc(N4CCNCC4)cn3)nc2n(C2CCCC2)c1=O [Palbociclib] (partner 0.5 µM)
The method, boiled down: as §1

On to NCI-H1975, for which the relative viability in experiment [1] (first compound 0.02 µM) stood at 0.446; in experiment [1] (first compound 0.06325 µM), 0.43; in experiment [1] (first compound 0.2 µM) it was 0.407; in experiment [1] (first compound 0.6325 µM), 0.425; in experiment [1] (first compound 2 µM) it was 0.357; in experiment [2] (first compound 0.02 µM), 1.11. Further, the relative viability in experiment [2] (first compound 0.06325 µM) was 1.27; in experiment [2] (first compound 0.2 µM), 1.22; in experiment [2] (first compound 0.6325 µM) it was 1.03; in experiment [2] (first compound 2 µM) it was 1.13; in experiment [3] (first compound 0.02 µM), 0.754; in experiment [3] (first compound 0.06325 µM) it was 0.701. Further, the relative viability in experiment [3] (first compound 0.2 µM) was 0.646; in experiment [3] (first compound 0.6325 µM), 0.652; in experiment [3] (first compound 2 µM), 0.646; in experiment [4] (first compound 0.02 µM), 0.662; in experiment [4] (first compound 0.06325 µM), 0.49; in experiment [4] (first compound 0.2 µM), 0.566. The relative viability in experiment [4] (first compound 0.6325 µM) stood at 0.631; in experiment [4] (first compound 2 µM) it was 0.563.
Regarding NCI-H322M, the relative viability turned out to be 0.909 in experiment [1] (first compound 0.02 µM); 0.839 in experiment [1] (first compound 0.06325 µM); 0.819 in experiment [1] (first compound 0.2 µM); 0.679 in experiment [1] (first compound 0.6325 µM); 0.795 in experiment [1] (first compound 2 µM); 1.21 in experiment [2] (first compound 0.02 µM). Moreover, the relative viability in experiment [2] (first compound 0.06325 µM) came to 1.26; in experiment [2] (first compound 0.6325 µM) it was 1.17; in experiment [2] (first compound 2 µM), 1.13; in experiment [3] (first compound 0.02 µM), 0.565; in experiment [3] (first compound 0.06325 µM), 0.673; in experiment [3] (first compound 0.2 µM) it was 0.529. In addition, the relative viability in experiment [3] (first compound 0.6325 µM) was 0.608; in experiment [3] (first compound 2 µM), 0.586; in experiment [4] (first compound 0.02 µM) it was 0.474; in experiment [4] (first compound 0.06325 µM), 0.518; in experiment [4] (first compound 0.2 µM), 0.501; in experiment [4] (first compound 0.6325 µM), 0.423. In addition, the relative viability in experiment [4] (first compound 2 µM) amounted to 0.495.
Regarding NCI-H2347, the relative viability in experiment [1] (first compound 0.02 µM) is 0.381; in experiment [1] (first compound 0.06325 µM), 0.376; in experiment [1] (first compound 0.2 µM), 0.386; in experiment [1] (first compound 0.6325 µM), 0.307; in experiment [1] (first compound 2 µM), 0.381; in experiment [2] (first compound 0.02 µM) it was 0.792. Further, the relative viability in experiment [2] (first compound 0.06325 µM) came to 0.675; in experiment [2] (first compound 0.2 µM) it was 0.688; in experiment [2] (first compound 0.6325 µM), 0.823; in experiment [2] (first compound 2 µM) it was 0.859; in experiment [3] (first compound 0.02 µM), 0.824; in experiment [3] (first compound 0.2 µM), 0.848. In addition, the relative viability was 0.657 in experiment [3] (first compound 2 µM); 0.498 in experiment [4] (first compound 0.02 µM); 0.425 in experiment [4] (first compound 0.2 µM); 0.424 in experiment [4] (first compound 0.6325 µM); 0.405 in experiment [4] (first compound 2 µM).
Consider NCI-H1650, for which the relative viability in experiment [1] (first compound 0.02 µM) was 0.499; in experiment [1] (first compound 0.06325 µM), 0.473; in experiment [1] (first compound 0.2 µM), 0.329; in experiment [1] (first compound 0.6325 µM) it was 0.388; in experiment [1] (first compound 2 µM) it was 0.385; in experiment [2] (first compound 0.02 µM), 1.39. Further, the relative viability came to 1.35 in experiment [2] (first compound 0.06325 µM); 1.25 in experiment [2] (first compound 0.2 µM); 1.31 in experiment [2] (first compound 0.6325 µM); 1.13 in experiment [2] (first compound 2 µM); 0.341 in experiment [4] (first compound 0.02 µM); 0.344 in experiment [4] (first compound 0.06325 µM). In addition, the relative viability in experiment [4] (first compound 0.2 µM) amounted to 0.342; in experiment [4] (first compound 0.6325 µM), 0.295; in experiment [4] (first compound 2 µM), 0.301.
ABC-1: the relative viability in experiment [1] (first compound 0.02 µM) turned out to be 0.252; in experiment [1] (first compound 0.2 µM), 0.224; in experiment [1] (first compound 0.6325 µM) it was 0.305; in experiment [1] (first compound 2 µM), 0.187; in experiment [3] (first compound 0.02 µM) it was 0.821; in experiment [3] (first compound 0.2 µM), 0.786. The relative viability in experiment [3] (first compound 2 µM) stood at 0.726; in experiment [4] (first compound 0.02 µM) it was 0.749; in experiment [4] (first compound 0.2 µM), 0.741; in experiment [4] (first compound 0.6325 µM) it was 0.872; in experiment [4] (first compound 2 µM), 0.664.
Consider SW 1573, for which the relative viability in experiment [1] (first compound 0.02 µM) was found to be 0.325; in experiment [1] (first compound 0.06325 µM), 0.365; in experiment [1] (first compound 0.2 µM), 0.361; in experiment [1] (first compound 0.6325 µM), 0.352; in experiment [1] (first compound 2 µM) it was 0.335; in experiment [2] (first compound 0.02 µM), 1.12. For the same cell line, the relative viability in experiment [2] (first compound 0.06325 µM) is 0.955; in experiment [2] (first compound 0.2 µM), 1.21; in experiment [2] (first compound 0.6325 µM) it was 1.06; in experiment [2] (first compound 2 µM), 1.1; in experiment [4] (first compound 0.02 µM), 0.404; in experiment [4] (first compound 0.06325 µM) it was 0.435. Also, the relative viability in experiment [4] (first compound 0.2 µM) amounted to 0.41; in experiment [4] (first compound 0.6325 µM), 0.265; in experiment [4] (first compound 2 µM), 0.405.
For the cell line UMC-11, the relative viability in experiment [1] (first compound 0.02 µM) was 0.331; in experiment [1] (first compound 0.06325 µM), 0.327; in experiment [1] (first compound 0.2 µM), 0.322; in experiment [1] (first compound 0.6325 µM), 0.332; in experiment [1] (first compound 2 µM), 0.294; in experiment [2] (first compound 0.02 µM), 0.303. The relative viability was 0.35 in experiment [2] (first compound 0.06325 µM); 0.291 in experiment [2] (first compound 0.2 µM); 0.334 in experiment [2] (first compound 0.6325 µM); 0.329 in experiment [2] (first compound 2 µM); 0.333 in experiment [4] (first compound 0.02 µM); 0.337 in experiment [4] (first compound 0.06325 µM). The relative viability was found to be 0.333 in experiment [4] (first compound 0.2 µM), 0.33 in experiment [4] (first compound 0.6325 µM) and 0.269 in experiment [4] (first compound 2 µM).
In the case of NCI-H358, the relative viability in experiment [1] (first compound 0.02 µM) was found to be 0.317; in experiment [1] (first compound 0.06325 µM) it was 0.349; in experiment [1] (first compound 0.2 µM), 0.418; in experiment [1] (first compound 0.6325 µM) it was 0.292; in experiment [1] (first compound 2 µM), 0.335; in experiment [3] (first compound 0.02 µM), 0.559. The relative viability in experiment [3] (first compound 0.2 µM) is 0.489; in experiment [3] (first compound 0.6325 µM) it was 0.574; in experiment [3] (first compound 2 µM), 0.521; in experiment [4] (first compound 0.02 µM), 0.159; in experiment [4] (first compound 0.06325 µM), 0.138; in experiment [4] (first compound 0.2 µM) it was 0.153. For the same cell line, the relative viability in experiment [4] (first compound 0.6325 µM) came out at 0.142; in experiment [4] (first compound 2 µM), 0.146.
Regarding IA-LM, the relative viability in experiment [2] (first compound 0.02 µM) was 0.909; in experiment [2] (first compound 0.06325 µM), 0.813; in experiment [2] (first compound 0.2 µM), 1.05; in experiment [2] (first compound 0.6325 µM), 0.83; in experiment [2] (first compound 2 µM) it was 0.754.
